Measurements: the supplement of paper PMC10307832

What was measured:
Assay in all cases: relative viability (nuclei count vs DMSO), 5 days (fraction); higher = more cells survive
BEN = system: BEN
In short: (§1)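 Relative viability was taken as the ratio of nuclei in treated wells to nuclei in vehicle wells. Lung cancer cell lines in 1536-well plates received compounds by pin tool one day after seeding, either one drug alone or a fixed anchor-drug dose plus five library-drug doses (not always all listed) in √10 steps. Nuclei were counted on 4× images after 5 days of treatment, and values are medians of duplicate plates.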

CAL-12T = system: CAL-12T
In short: as §1

COR-L 105 = system: COR-L 105
In short: as §1

COR-L23 = system: COR-L23
In short: as §1

HARA = system: HARA
In short: as §1

HCC-15 = system: HCC-15
In short: as §1

HCC-44 = system: HCC-44
In short: as §1

HCC-827 = system: HCC-827
In short: as §1

HOP-62 = system: HOP-62
In short: as §1

LC-2-ad = system: LC-2-ad
In short: as §1

LCLC-97TM1 = system: LCLC-97TM1
In short: as §1

LU99A = system: LU99A
In short: as §1

LXF-289 = system: LXF-289
In short: as §1

NCI-H1993 = system: NCI-H1993
In short: as §1

NCI-H2009 = system: NCI-H2009
In short: as §1

NCI-H2087 = system: NCI-H2087
In short: as §1

NCI-H2126 = system: NCI-H2126
In short: as §1

NCI-H2170 = system: NCI-H2170
In short: as §1

NCI-H727 = system: NCI-H727
In short: as §1

PC-14 = system: PC-14
In short: as §1

PC-3 [JPC-3] = system: PC-3 [JPC-3]
In short: as §1

SK-MES-1 = system: SK-MES-1
In short: as §1

O=C(O)CCCCC(CCSCc1ccccc1)SCc1ccccc1 (centres undefined) [CPI-613] + CCNC(=O)c1noc(-c2cc(C(C)C)c(O)cc2O)c1-c1ccc(CN2CCOCC2)cc1 [Luminespib] (partner 0.01 µM)
relative viability (BEN; first compound 5 µM): 0.619 | relative viability (BEN; first compound 15.81 µM): 0.362 | relative viability (BEN; first compound 50 µM): 0.484 | relative viability (BEN; first compound 158.11 µM): 0.292 | relative viability (BEN; first compound 500 µM): 0.149 | relative viability (CAL-12T; first compound 5 µM): 0.349 | relative viability (CAL-12T; first compound 15.81 µM): 0.325 | relative viability (CAL-12T; first compound 50 µM): 0.377 | relative viability (CAL-12T; first compound 158.11 µM): 0.0292 | relative viability (CAL-12T; first compound 500 µM): 0.0074 | relative viability (COR-L 105; first compound 5 µM): 0.749 | relative viability (COR-L 105; first compound 15.81 µM): 0.727 | relative viability (COR-L 105; first compound 50 µM): 0.692 | relative viability (COR-L 105; first compound 158.11 µM): 0.421 | relative viability (COR-L 105; first compound 500 µM): 0.127 | relative viability (COR-L23; first compound 5 µM): 0.58 | relative viability (COR-L23; first compound 15.81 µM): 0.61 | relative viability (COR-L23; first compound 50 µM): 0.664 | relative viability (COR-L23; first compound 158.11 µM): 0.108 | relative viability (COR-L23; first compound 500 µM): 0.0308 | relative viability (HARA; first compound 15.81 µM): 0.635 | relative viability (HARA; first compound 50 µM): 0.757 | relative viability (HARA; first compound 158.11 µM): 0.297 | relative viability (HARA; first compound 500 µM): 0.0024 | relative viability (HCC-15; first compound 5 µM): 0.297 | relative viability (HCC-15; first compound 15.81 µM): 0.424 | relative viability (HCC-15; first compound 50 µM): 0.304 | relative viability (HCC-15; first compound 158.11 µM): 0.0775 | relative viability (HCC-15; first compound 500 µM): 0.0498 | relative viability (HCC-44; first compound 5 µM): 0.964 | relative viability (HCC-44; first compound 15.81 µM): 0.939 | relative viability (HCC-44; first compound 50 µM): 1.04 | relative viability (HCC-44; first compound 158.11 µM): 0.495 | relative viability (HCC-44; first compound 500 µM): 0.121 | relative viability (HCC-827; first compound 5 µM): 0.416 | relative viability (HCC-827; first compound 15.81 µM): 0.615 | relative viability (HCC-827; first compound 50 µM): 0.774 | relative viability (HCC-827; first compound 158.11 µM): 0.633 | relative viability (HCC-827; first compound 500 µM): 0.329 | relative viability (HOP-62; first compound 5 µM): 0.882 | relative viability (HOP-62; first compound 15.81 µM): 0.944 | relative viability (HOP-62; first compound 50 µM): 0.894 | relative viability (HOP-62; first compound 158.11 µM): 0.627 | relative viability (HOP-62; first compound 500 µM): 0.607 | relative viability (LC-2-ad; first compound 5 µM): 1.02 | relative viability (LC-2-ad; first compound 15.81 µM): 0.958 | relative viability (LC-2-ad; first compound 50 µM): 0.847 | relative viability (LC-2-ad; first compound 158.11 µM): 0.235 | relative viability (LC-2-ad; first compound 500 µM): 0.0688 | relative viability (LCLC-97TM1; first compound 5 µM): 0.641 | relative viability (LCLC-97TM1; first compound 15.81 µM): 0.71 | relative viability (LCLC-97TM1; first compound 50 µM): 0.737 | relative viability (LCLC-97TM1; first compound 158.11 µM): 0.188 | relative viability (LCLC-97TM1; first compound 500 µM): 0.0176 | relative viability (LU99A; first compound 5 µM): 0.296 | relative viability (LU99A; first compound 15.81 µM): 0.222 | relative viability (LU99A; first compound 50 µM): 0.243 | relative viability (LU99A; first compound 158.11 µM): 0.159 | relative viability (LU99A; first compound 500 µM): 0.115 | relative viability (LXF-289; first compound 5 µM): 0.611 | relative viability (LXF-289; first compound 15.81 µM): 0.535 | relative viability (LXF-289; first compound 50 µM): 0.657 | relative viability (LXF-289; first compound 158.11 µM): 0.206 | relative viability (LXF-289; first compound 500 µM): 0.0484 | relative viability (NCI-H1993; first compound 5 µM): 0.799 | relative viability (NCI-H1993; first compound 15.81 µM): 0.296 | relative viability (NCI-H1993; first compound 50 µM): 0.917 | relative viability (NCI-H1993; first compound 158.11 µM): 0.611 | relative viability (NCI-H1993; first compound 500 µM): 0.437 | relative viability (NCI-H2009; first compound 5 µM): 1.06 | relative viability (NCI-H2009; first compound 15.81 µM): 0.954 | relative viability (NCI-H2009; first compound 50 µM): 0.936 | relative viability (NCI-H2009; first compound 158.11 µM): 0.179 | relative viability (NCI-H2009; first compound 500 µM): 0.012 | relative viability (NCI-H2087; first compound 5 µM): 0.182 | relative viability (NCI-H2087; first compound 15.81 µM): 0.165 | relative viability (NCI-H2087; first compound 50 µM): 0.155 | relative viability (NCI-H2087; first compound 158.11 µM): 0.0422 | relative viability (NCI-H2087; first compound 500 µM): 0.026 | relative viability (NCI-H2126; first compound 5 µM): 0.906 | relative viability (NCI-H2126; first compound 15.81 µM): 0.83 | relative viability (NCI-H2126; first compound 50 µM): 0.85 | relative viability (NCI-H2126; first compound 158.11 µM): 0.223 | relative viability (NCI-H2126; first compound 500 µM): 0.053 | relative viability (NCI-H2170; first compound 5 µM): 0.754 | relative viability (NCI-H2170; first compound 15.81 µM): 0.573 | relative viability (NCI-H2170; first compound 50 µM): 0.524 | relative viability (NCI-H2170; first compound 158.11 µM): 0.196 | relative viability (NCI-H2170; first compound 500 µM): 0.0909 | relative viability (NCI-H727; first compound 5 µM): 0.274 | relative viability (NCI-H727; first compound 15.81 µM): 0.641 | relative viability (NCI-H727; first compound 50 µM): 0.286 | relative viability (NCI-H727; first compound 158.11 µM): 0.188 | relative viability (NCI-H727; first compound 500 µM): 0.115 | relative viability (PC-14; first compound 5 µM): 0.158 | relative viability (PC-14; first compound 15.81 µM): 0.185 | relative viability (PC-14; first compound 50 µM): 0.167 | relative viability (PC-14; first compound 158.11 µM): 0.129 | relative viability (PC-14; first compound 500 µM): 0.0407 | relative viability (PC-3 [JPC-3]; first compound 5 µM): 0.594 | relative viability (PC-3 [JPC-3]; first compound 15.81 µM): 0.578 | relative viability (PC-3 [JPC-3]; first compound 50 µM): 0.627 | relative viability (PC-3 [JPC-3]; first compound 158.11 µM): 0.563 | relative viability (PC-3 [JPC-3]; first compound 500 µM): 0.48 | relative viability (SK-MES-1; first compound 5 µM): 0.772 | relative viability (SK-MES-1; first compound 15.81 µM): 0.659 | relative viability (SK-MES-1; first compound 50 µM): 0.666 | relative viability (SK-MES-1; first compound 158.11 µM): 0.163 | relative viability (SK-MES-1; first compound 500 µM): 0.0794
